From US5856166A, “Streptomyces proteases and methods for improved secretion of recombinantly-expressed proteins” (Cangene Corporation, priority 1994, dated 1999)
“Also recorded” adds a separate entry of the source. Where a SMILES comes first, the peptide text is derived from it. The star is where a group is joined. CH2Cl = ClC*

Tests used:
[1] = target: T1, Tap (tripeptidyl aminopeptidase) (Streptomyces lividans, UniProt Q54410); test: Inactivation of Tap by APACMK assayed with APA-pNA, determination of kinetic constants; type: biochemical, S. lividans 66
T1 construct: An autolytic tripeptide cleavage removing APA after signal peptide removal would yield the N-terminal found for the secreted protease; made in house; host or cells: Streptomyces lividans 66 (wild-type strain, native secreted enzyme purified from the broth)
T1 sequence (Q54410 40-537): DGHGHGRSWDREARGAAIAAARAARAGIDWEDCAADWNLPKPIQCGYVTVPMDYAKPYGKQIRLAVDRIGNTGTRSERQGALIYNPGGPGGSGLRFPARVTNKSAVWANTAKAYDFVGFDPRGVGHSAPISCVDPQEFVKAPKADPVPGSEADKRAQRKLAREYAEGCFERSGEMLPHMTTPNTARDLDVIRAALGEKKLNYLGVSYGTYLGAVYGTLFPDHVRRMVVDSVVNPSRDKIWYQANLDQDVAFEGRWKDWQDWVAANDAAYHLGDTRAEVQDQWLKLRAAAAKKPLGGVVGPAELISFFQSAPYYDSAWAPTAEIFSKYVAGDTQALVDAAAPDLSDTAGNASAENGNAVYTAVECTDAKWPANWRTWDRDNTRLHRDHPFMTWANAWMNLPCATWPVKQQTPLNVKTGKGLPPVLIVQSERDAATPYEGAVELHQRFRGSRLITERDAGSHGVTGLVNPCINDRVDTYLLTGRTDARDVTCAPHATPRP
Method: The concentration of Tap in the inactivations was 1.0 uM. The inactivation and assay were conducted as described in Example 8. In FIG. 6, (O)=2.70 uM APACMK; (Δ)=2.16 uM APACMK; (.quadrature.)=1.73 uM APACMK; (*)=1.38 uM APACMK; (+)=No APACMK.
The methods employed are described in Examples 6, 7, and 8.
A stock solution of 10 nM Tap in 100mM Tris-HCl, pH 8.0 was prepared. Serial dilutions of 210 uM, 21 uM, 2.1 uM, 210 nM, 21 nM, and 2.1 nM APACMK (Example 5) were prepared. To the microtiter well, 25 ul of Tap followed by 25 ul of an APACMK dilution or distilled water, for an uninhibited control, were added. The assays were incubated for 20 minutes at 22° C. 50 ul 1.6 mM APA-pNA were added to each well. The absorbance was read at 405 nm then incubated at 37° C. The change in absorbance at 405 nm was read after 15 and 60 minutes of incubation.
A stock solution of 1.1 uM Tap in 50 mM Tris-HCl, pH 8.0 was prepared. APACMK stock solutions of 11 uM, 13.8 uM, 17.3 uM, 21.7 uM, 27.0 uM, 54.0 uM, 108 uM, and 1.08 mM were prepared. The Substrate Solution was 50 mM Tris-HCl, pH 8.0, 0.8 mM APA-pNA. The inactivation was performed by placing 90 ul of Tap […] in a 1.5 ml Eppendorf tube on ice and adding 10 ul of water (uninhibited control) or 10 ul of APACMK. A 10 ul aliquot was removed immediately and was assayed by adding it to a cuvette containing 390 ul Substrate Solution at 22° C. The initial velocity was obtained from the change in absorbance at 405 nm during the first 10 seconds of the assay. Additional aliquots were removed at time points and assayed by the same method. At APACMK concentrations greater than 5.0 uM in the incubation, it was not possible to remove an aliquot from the incubation before 90% inactivation occurred.

[2] = target: T1, Tap (tripeptidyl aminopeptidase); test: Cleavage of GM-CSF by Tap, native gel electrophoresis; type: biochemical, S. lividans 66
Method: The assay was performed as described in Example 7. The Tap concentration in the assays was 5 nM. Lane 1=GM-CSF standard; Lane 2=GM-CSF after digestion with Tap in the absence of APACMK; Lanes 3 and 4=150 uM APACMK; Lanes 5 and 6=15 uM APACMK; Lanes 7 and 8=1.5 uM APACMK; Lanes 9 and 10=150 nM APACMK; Lanes 11 and 12=15 nM APACMK; Lanes 13 and 14=1.5 nM APACMK; Lanes 15 and 16=150 pM APACMK.
To 10 ul of rhGM-CSF (10 ug, Cangene) and 20 ul 20 mM Tris-HCl, pH 8.0, 20 ul of Tap were added. The assays were incubated at 37° C. for 2 hrs. 20 ul of 125 mM Tris-HCl, pH 6.8, 0.1% bromophenol blue in 50% aqueous glycerol were added. Products were separated by native gel electrophoresis at constant current on a 17% polyacrylamide gel by a modification of the method of Davies (Davies, 1964) in which the pH of all buffers was modified with H2 SO4. Products were visualized by staining with Coomassie Blue G-250 (see FIG. 1A).
A stock solution of 10 nM Tap in 20 mM Tris-HCl, pH 8.0 was prepared. Serial dilutions of 210 uM, 21 uM, 2.1 uM, 210 nM, 21 nM, and 2.1 nM APACMK (Example 5) were prepared. To 20 ul Tap, 20 ul of an APACMK dilution (or water for an uninhibited enzyme control) were added and incubated at 22° C. for 30 minutes. 10 ul of GM-CSF (1 ug/ul, Cangene) were added and incubated at 37° C. for 2 hours. Products were analyzed by native gel electrophoresis as described in Example 2.

Tap = target: T2, Tap (Streptomyces lividans, UniProt Q54410); test: Inhibition of Tap by APACMK during fermentation of S. lividans (GM-CSF(-3) formation); type: cell-based, S. lividans 66; settings: 10 uM APACMK added after 25 hours; sampled to 48 hours
T2 construct: 100 ml of media was inoculated in 500 ml baffle-bottom flasks with 100 ul of S. lividans 66 working seed bank material; endogenous in cells; host or cells: Streptomyces lividans 66
T2 sequence (Q54410 40-537): T1 sequence (Q54410 40-537)
Method: When APACMK and GM-CSF were added to the protease-containing broth from S. lividans fermentations, the formation of the GM-CSF(-3) degradation product was inhibited. Lane 1=Standard containing GM-CSF and GM-CSF(-3). Lanes 2-6 show a fermentation in the presence of 10 uM APACMK. Lane 2=25 hours growth; Lane 3=27 hours growth; Lane 4=29 hours growth; Lane 5=31 hours growth; Lane 6=48 hours growth. Lanes 7-11 show a fermentation without APACMK. Lane 7=25 hours growth; Lane 8=27 hours growth; Lane 9=29 hours growth; Lane 10=31 hours growth; Lane 11=48 hours growth. GM-CSF degradation was analyzed by native gel electrophoresis.
(§1) 100 ml of media was inoculated in 500 ml baffle-bottom flasks with 100 ul of S. lividans 66 working seed bank material. The cultures were grown in a New Brunswick gyratory incubator at 32° C. and 240 rpm. The cultures were sampled at 25, 27, 29, 31, and 48 hours post-inoculation and analyzed by native gel electrophoresis (see FIG. 7). Following removal of the 25 hour sample, 100 mM APACMK in sterile water were added to yield a final concentration of 10 uM. A control flask without APACMK was retained.

S. lividans 66 = test: Cell growth of S. lividans fermentation in the presence of APACMK; type: cell-based; settings: 10 uM APACMK
Method: as §1

[3] = target: T1, Tap (tripeptidyl aminopeptidase); test: Inhibition of TAP in the APA-pNA assay (protease inhibitor survey, Table I); type: biochemical, S. lividans 66
Method: The protease and inhibitor were preincubated for 15 minutes at 22° C. Substrate was added and the mixture was incubated at 37° C. Activity was measured by monitoring the change in absorbance at λ=405 nm.
The assay was conducted in a 96 well microtiter plate. To each well in the assay, 50 ul 100 mM Tris-HCl, pH 8.0, were added followed by 25 ul 3.2 mM APA-pNA. 25 ul of Tap were added to the wells and the absorbance was read at 405 nm. The assays were incubated at 37° C. for 2 hours. The absorbance was read at 405 nm. The activity (release of p-nitroaniline) was calculated from the change in absorbance.

[4] = target: T1, Tap (tripeptidyl aminopeptidase); test: Cleavage of IL-3 by Tap after PMSF treatment, isoelectric focusing; type: biochemical, S. lividans 66; settings: Tap preincubated with PMSF 30 minutes at 22° C.; incubation up to 4 hours at 37° C.
Method: Lanes 1-4 show the incubation of IL-3 with TAP-S that has been treated with PMSF. Lane 1=4 hrs; Lane 2=2 hours; Lane 3=1 hr.; Lane 4=0 hours. Lanes 5-8 show the incubation of IL-3 with uninhibited Tap. Lane 5=4 hrs.; Lane 6=2 hrs.; Lane 7=1 hrs.; Lane 8=0 hrs. Lane 9 is a human carbonic anhydrase marker, pI=7.4. Lane 10 contains pI markers. […] The enzyme is not affected by sulfhydryl reagents, chelators or aspartyl protease inhibitors (Table I).
To 50 ul 20 mM Tris-HCl, pH 8.0, 40 ul rhIL-3 (2.5 ug/ul, Cangene) was added followed by 10 ul Tap. The assays were incubated at 37° C.. 25 ul aliquots were withdrawn at the desired time points and frozen on crushed dry ice. The products were separated by isoelectric focusing from pH 3-10 using Pharmalyte 3-10 (Pharmacia) ampholytes (FIG. 4). Products were visualized by staining with Coomassie Blue G-250.
Tap stock (Example 1) was diluted 100-fold with 20 mM Tris-HCl, pH 8.0. A fresh solution of 80 mM PMSF was prepared in isopropanol (iPrOH). A Stock Buffer of 20 mM Tris-HCl, pH 8.0 was prepared. Four preincubations were prepared as follows.
These were incubated at 22° C. for 30 minutes. When the preincubation was complete, 40 ul rhIL-3 (2.5 ug/ul, Cangene) were added and incubation was initiated at 37° C.. […] When the sampling process was complete, the products were analyzed by isoelectric focusing from pH 3-10 (Example 2).

[5] = inactivation of Tap, APA-pNA as substrate

C[C@H](N)C(=O)N1CCC[C@H]1C(=O)N[C@@H](C)C(=O)CCl [APACMK, L-alanyl-L-prolyl-L-alanine chloromethylketone] (H-Ala-Pro-Ala-CH2Cl)
effect on release of p-nitroaniline from APA-pNA by Tap [1]: stopped the release of p-nitroaniline; also recorded: inactivated Tap at very low concentrations
inhibition at 2.7 µM ([1]; 0.1 h, within 6 minutes at 0° C., inhibitor concentration 2.7 uM, inhibitor/enzyme molar ratio 2.7): > 99%
Ki [1, 5]: 3.3 µM
kinact [1, 5]: 0.00233 s⁻¹
effect on cleavage of GM-CSF by Tap [2]: stopped the cleavage of GM-CSF; also recorded: inactivated Tap at very low concentrations
formation of GM-CSF(-3) degradation product in S. lividans fermentation (Tap): prevented cleavage of GM-CSF; also recorded: inhibited; also recorded: significantly reduced formation of GM-CSF(-3)
cell growth during fermentation (S. lividans 66): did not significantly retard the rate of cell growth; also recorded: did not inhibit cell growth

O=S(=O)(F)Cc1ccccc1 [PMSF, phenylmethanesulfonyl fluoride]
effect on cleavage of APA-pNA by Tap ([3]; Tap treated with PMSF): inhibited
Residual Activity ([3]; inhibitor 1.6 mM, preincubated 15 minutes at 22° C., substrate APA-pNA, enzyme only = 100): 7
effect on cleavage of GM-CSF by Tap [2]: inhibited
effect on cleavage of IL-3 by Tap [4]: inhibited; also recorded: intact IL-3 is clearly detected after 4 hours
